Source: patent publication US10494404B2, “Quinolinium conjugates of cyclosporin” (priority 2014, dated 2019)
pKi: −log10 of the molar value.

Experiments:
Cylophilin D (CypD) = Cylophilin D (CypD) (Homo sapiens, UniProt P30405); experiment: Cyclophilin D competitive fluorescence polarization assay; conditions: competitive FP assay; FP-CsA 45 nM, enzyme 40 nM; read-out: Ki for cylophilin D binding
Method: A competitive fluorescence polarization assay (FP-assay) was used.
Polarization was determined by measuring the ratios between parallel and perpendicular polarized light and calculated as described by Roehrl et al 2004.
Titration of a single probe concentration against different enzyme concentrations was used to determine the dissociation constant (Kd) (Nikolovska et al 2004). The inhibitor constant (Ki) was calculated with the equation shown below in Equation A. (Nikolovska et al 2004).
Three replicates were used for this experiment. […] DMSO % in total solution should remain lower than 1%.

[1] = test system: Ca^2+ mediated PT pore formation; experiment: Calcium retention capacity (CRC) assay, isolated WT mouse liver mitochondria; type: biochemical; conditions: 8 nM
Source text: In order to assess the efficiency of compounds on Ca^2+ mediated PT pore formation we measured calcium retention capacity (CRC) of isolated mouse liver mitochondria. […] Energised mitochondria take up Ca^2+, resulting in a declining fluorescent signal following the Ca^2+ bolus induced peak. Mitochondria take up and buffer Ca^2+ up to a threshold when intramitochondrial [Ca^2+] reaches threshold to induce PT. […] The amount of Ca^2+ required to induce PT characterizes its Ca^2+ sensitivity and defines mitochondrial CRC. Inhibition of CypD, the Ca^2+ sensor of PT, thus leads to increased CRC.
Further experiments were carried out using the techniques discussed in Example 4.
Subcellular fractionation was performed as previously described (Astin et al, 2013). […] At 4° C., the liver was rinsed in PBS to remove excess blood, and any fat and connective tissue was eliminated. PBS was then replaced with isolation buffer containing 1 mM PMSF, and the liver was chopped into pieces (approximately 2 mm in length). Tissue was then homogenized in this solution until no solid matter remained, and then centrifuged at 800G for 10 minutes at 4° C. The nuclear pellet was then discarded, and the post nuclear supernatant retained, and centrifuged at 10300G for another 10 minutes at 4° C. The postmitochondrial supernatant was discarded, and the mitochondrial pellet was resuspended in isolation buffer and PMSF, and kept on ice. Protein levels were quantified using a ThermoScientific BCA protein quantification assay, as per manufacturer's instructions.
Isolated mitochondria were resuspended (500 μg protein/ml) in MSK buffer (75 mM mannitol, 25 mM sucrose, 5 mM potassium phosphate monobasic, 20 mM Tris-HCl, 100 mM KCl, and 0.1% bovine serum albumin, pH 7.4) supplemented with 10 mM succinate, 1 μM rotenone and 1 μM Fluo5N. 200 μl mitochondrial suspension per well was used in 96 well microplates. Compounds were incubated for ten minutes before the plate was assayed in a Fluostar Optima plate reader, using Ex/Em filters at 480/520 […]; CaCl2 was injected approximately every 6.5 minutes for 80 minutes (12 total injections, final concentration of 75 μM). To calculate % inhibition of Ca^2+ induced pore opening, first areas under each curve were calculated, and controls without CaCl2 addition were subtracted as background. The background corrected values were then expressed as the fraction of controls without mitochondria, representing the total amount of Ca^2+ added, unbuffered by mitochondria. Percentage inhibition for each [compound] was then calculated as the % of the corresponding value for the untreated condition. […] For experiments with CypD −/− mice, 100 ul mitochondrial suspension per well was used. CaCl2) was injected approximately every 6.5 minutes for 135 minutes (20 total injections, final concentration of 266 μM). Data were background corrected and expressed as the fraction of controls without mitochondria, and then normalised to the wild type no drug condition. Significance was assessed by one way ANOVA.

HepG2 cells = experiment: HepG2 high content screening of cell health markers; type: cell-based; conditions: HepG2, 72 h exposure
Method: HepG2 cells were plated on 96-well tissue culture treated black walled clear bottomed polystyrene plates, 100 μL, (3000 cells) per well. After 24 hours the cells were dosed with the test compounds at a range of concentrations. At the end of the incubation period, the cells were loaded with the relevant dye/antibody for each cell health markers set out below. The plates were then scanned using an automated fluorescent cellular imager [ArrayScan VTI (Thermo Scientific Cellomics)].
The following cell health markers were measured: • a. Cell count—a decreasing number of cells per well indicates toxicity due to necrosis, apoptosis or a reduction in cellular proliferation. • b. Nuclear area—an increase in nuclear size indicates necrosis or G2 cell cycle arrest and a decrease indicates apoptosis. • c. DNA structure—an increase in DNA structure indicates chromosomal instability and DNA fragmentation. • d. […]
HepG2 cells were seeded in black, clear-bottom 96-well tissue culture plates at a density of 3000 cells per well. […] Cell count, nuclear size and DNA structure were also measured Hoechst 33342 (Life Technologies). Following staining of the HepG2 cells fluorescence was analyzed by image acquisition with a Thermo Fisher Cellomics® ArrayScanVTI High Content Screening Reader (ThermoFisher Scientific Inc., Waltham, Mass.) and vHCS™ view software (ThermoFisher Scientific Inc.). […]

Sequence of Cylophilin D (CypD) (P30405 30-207): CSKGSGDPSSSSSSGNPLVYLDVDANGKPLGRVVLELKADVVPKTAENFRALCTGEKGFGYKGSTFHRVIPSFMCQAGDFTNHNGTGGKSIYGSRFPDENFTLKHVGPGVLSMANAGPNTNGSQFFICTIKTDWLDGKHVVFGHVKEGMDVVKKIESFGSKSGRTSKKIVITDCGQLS

| pKi (Cylophilin D (CypD)) | Compound | inhibition of Ca2+ mediated PT pore formation [1] | toxicity (cell health markers) compared with unmodified CsA (HepG2 cells) |
| --- | --- | --- | --- |
| 6.90 | C/C=C/C[C@@H](C)[C@@H](O)[C@H]1C(=O)N[C@@H](CC)C(=O)N(C)C(C/C=C/CCC[n+]2cccc3ccccc32)C(=O)N(C)[C@@H](CC(C)C)C(=O)N[C@@H](C(C)C)C(=O)N(C)[C@@H](CC(C)C)C(=O)N[C@@H](C)C(=O)N[C@H](C)C(=O)N(C)[C@@H](CC(C)C)C(=O)N(C)[C@@H](CC(C)C)C(=O)N(C)[C@@H](C(C)C)C(=O)N1C (stereo partly shown) [Compound 2, [Sar-(E)-Hexen-2-yl 6-quinolinium]^3 CsA] |  |  |
| 7.19 | CC[C@@H]1NC(=O)[C@H]([C@H](O)[C@H](C)C/C=C/CCC[n+]2ccc(O)c3ccccc32)N(C)C(=O)[C@H](C(C)C)N(C)C(=O)[C@H](CC(C)C)N(C)C(=O)[C@H](CC(C)C)N(C)C(=O)[C@@H](C)NC(=O)[C@H](C)NC(=O)[C@H](CC(C)C)N(C)C(=O)[C@H](C(C)C)NC(=O)[C@H](CC(C)C)N(C)C(=O)CN(C)C1=O [Compound 5, [Gly-(1S,2R,E)-8-(4-hydroxyquinolinium)-1-hydroxy-2-methyloct-4-ene]^1 CsA] |  |  |
| 7.14 | C=CCC1C(=O)N(C)[C@@H](CC(C)C)C(=O)N[C@@H](C(C)C)C(=O)N(C)[C@@H](CC(C)C)C(=O)N[C@@H](C)C(=O)N[C@H](C)C(=O)N(C)[C@@H](CC(C)C)C(=O)N(C)[C@@H](CC(C)C)C(=O)N(C)[C@@H](C(C)C)C(=O)N(C)[C@@H]([C@H](O)[C@H](C)C/C=C/CCC[n+]2ccc(N(C)C)c3ccc(C(F)(F)F)cc32)C(=O)N[C@@H](CC)C(=O)N1C (stereo partly shown) [Compound 4] | retain high levels inhibition |  |
|  | CC[C@@H]1NC(=O)[C@H]([C@H](O)[C@H](C)C/C=C/CCC[n+]2ccc(N(C)C)c3ccc(C(F)(F)F)cc32)N(C)C(=O)[C@H](C(C)C)N(C)C(=O)[C@H](CC(C)C)N(C)C(=O)[C@H](CC(C)C)N(C)C(=O)[C@@H](C)NC(=O)[C@H](C)NC(=O)[C@H](CC(C)C)N(C)C(=O)[C@H](C(C)C)NC(=O)[C@H](CC(C)C)N(C)C(=O)CN(C)C1=O [Compound 3, [Gly(1S,2R,E)-10-(4-dimethylamino-7-trifluoromethylquinolinium)1-hydroxy-2-methyldec-4-enoic acid]^1 CsA] | retain high levels inhibition |  |
| 7.34 | C/C=C/C[C@@H](C)[C@@H](O)[C@H]1C(=O)N[C@@H](CC)C(=O)N(C)C(C/C=C/CCC[n+]2ccc(O)c3ccccc32)C(=O)N(C)[C@@H](CC(C)C)C(=O)N[C@@H](C(C)C)C(=O)N(C)[C@@H](CC(C)C)C(=O)N[C@@H](C)C(=O)N[C@H](C)C(=O)N(C)[C@@H](CC(C)C)C(=O)N(C)[C@@H](CC(C)C)C(=O)N(C)[C@@H](C(C)C)C(=O)N1C (stereo partly shown) [Compound 6, [Sar-(E)-Hexen-2-yl-6-(4-hydroxy)quinolinium]^3 CsA] |  |  |
|  | CC[C@@H]1NC(=O)[C@H]([C@H](O)[C@H](C)C/C=C/CCC(=O)Nc2ccc(NCc3ccc(F)cc3)nc2N)N(C)C(=O)[C@H](C(C)C)N(C)C(=O)[C@H](CC(C)C)N(C)C(=O)[C@H](CC(C)C)N(C)C(=O)[C@@H](C)NC(=O)[C@H](C)NC(=O)[C@H](CC(C)C)N(C)C(=O)[C@H](C(C)C)NC(=O)[C@H](CC(C)C)N(C)C(=O)CN(C)C1=O [Reference Compound 1, [Gly-(1S,2R,E)-7-(flupirtine)-1-hydroxy-2-methyloct-4-enamide]^1 CsA, reference compound] |  | A similar reduction in toxicity was not observed |
